Tests used:
[1] = system: photoreceptor layer of rats exposed to blue light; experiment: Blue light (480 nm) photoreceptor damage in rats, retinal structure by histology; format: in vivo, Sprague-Dawley rats; set-up: key to Protective Activity: * means a protective effect of the photoreceptor layer to damage from blue light radiation.; **: Greater effectiveness is shown by increasing number of *'s.; ***: Greater effectiveness is shown by increasing number of *'s.; X means no such protective effect; settings: for thickness of the photoreceptor layer: FIG. 2, oral 5 days before blue light, tazarotene 3 mg/kg/day, Compound A 10 mg/kg/day, compared with vehicle and antagonists; for thickness of the photoreceptor layer / Protective Activity: rats; for Protective Activity: oral dosing 5 days, last dose 2 hours before 8 hours blue light (480 nm, 12000 LUX)
Experimental: (§1) Adult male abino Sprague-Dawley rats (weight 400±30 g) were used for the following examples. After 18 hours of dark adaptation, animals were housed in specially designed acrylic cages and exposed to high intensity (12000 LUX) of blue fluorescent light (480 nm) for 8 hours. The light intensity was measured with a digital light meter. Each animal was housed separately. The room was maintained at 73° F. throughout the experiment. Animals were orally dosed with the appropriate retinoid or positive control, i.e. brimonidine, for 5 days with the last dose administered 2 hours before blue-light exposure. After the light exposure, the animals were kept in the dark room and recovered for an additional 5 days. Retinal function was evaluated with flash ERG analysis. Retinal structure was assessed by histology.
The following retinoids were evaluated for preventing damage to the photoreceptor layer of rats subjected to exposure to blue light.
(The RAR agonist, tazarotene, is an RARβ and […] retinioid. The RXR agonist also has some RAR agonist activity.)
In this Example, the above experiment is repeated with the RAR antagonist, which has antagonist activity at the α, β and […] retinoid receptor subtype dosed in combination with the RAR agonist and the RXR agonist.
The following retinoid compounds were tested in the above method with the results reported as shown.

[2] = system: photoreceptor layer of rats exposed to blue light; experiment: Blue light (480 nm) photoreceptor damage in rats, retinal function by flash ERG; format: in vivo, Sprague-Dawley rats; settings: FIG. 3, ERG wave versus time, oral 5 days before blue light
Experimental: as §1

[3] = system: photoreceptors of rats and mice; settings: Sparrow PNAS 2003, Sieving PNAS 2001; cited from earlier work

Compound	Protective Activity [1]	also measured
CC(/C=C/[C@@H]1C[C@]1(C)c1ccc2c(c1)C(C)(C)CCC2(C)C)=C\C(=O)O [Compound A, 3,7-Dimethyl-6(S),7(S)-methano-7-[1,1,4,4-tetramethyl-1,2,3,4-tetrahydronaphth-7-yl]-2E, 4E-heptadienoic acid]	**	thickness of the photoreceptor layer [1]: greater than the photoreceptor layers of the animals dosed with the RAR or RXR antagonists; protective effect to the photoreceptor layer measured by ERG [2]: show a protective effect
CCCOc1c(\C(CC)=C(F)/C=C/C(C)=C/C(=O)O)cc(C(C)C)cc1C(C)C [Compound B, (2E,4E,6E)-7-(3,5-Diisopropyl-2-propoxy-phenyl)-6-fluoro-3-methyl-nona-2,4,6-trienoic acid]	X	–
CCc1ccc(C2=CC(C)(C)Sc3ccc(C#Cc4ccc(C(=O)O)cc4)cc32)cc1 [Compound C]	X	effect of RAR antagonist on effectiveness of RAR agonist and RXR agonist ([1]; FIG. 5, RAR antagonist dosed in combination with the RAR agonist and the RXR agonist): severely diminishes the effectiveness of both the RAR agonist and the RXR agonists
Cc1ccc(C2CC(C)(C)Oc3c(Br)cc(NC(=O)c4ccc(C(=O)O)c(F)c4)cc32)cc1 (centres unmarked) [Compound D, 2-Fluoro-4-[6′-(2″,2″-dimethyl-4″-tolylchromanyl)-8'-bromo]carbamoyl benzoic acid]	X	–
CC1(C)CCC(C)(C)c2c1cc(C(=O)Nc1cc(F)c(C(=O)O)c(F)c1)c(O)c2Cl [Compound E, 4-[(4-Chloro-3-hydroxy-5,5,8,8-tetramethyl-5,6,7,8-tetrahydro-naphthalene-2-carbonyl)-amino]-2,6-difluoro-benzoic acid]	**	–
CCC[C@]1(c2ccc3c(c2)C(C)(C)CCC3(C)C)C[C@H]1/C=C/C(C)=C/C(=O)O [Compound F, 3-Methyl-7-propyl-6(S),7(S)-methano-7[1,1,4,4-tetrametyl-1,2,3,4-tetrahydro-7-yl]-2(E),4(E)-heptadienoic acid]	X	–
Brc1c(NC2=NCCN2)ccc2nccnc12 [brimonidine, reference compound]	–	thickness of the photoreceptor layer [1]: much greater than the thickness of the photoreceptor layers of the animals dosed with the vehicle alone
CC1=C(/C=C/C(C)=C/C=C/C(C)=C\C(=O)O)C(C)(C)CCC1 [isotretinoin, 13-cis retinoic acid]	–	protection of photoreceptors from light damage [3]: can protect photoreceptors of rats and mice from light damage
